According to PubChem BioAssay AID256 (DTP/NCI, 2004):
Where “and” joins values, the source holds several entries; their conditions need not be identical. Identical values can stand only once. Inconclusive results and toxic doses are left out. How the source made its calls: active means survival T/C of 150% or more; inactive means T/C below 125% in these data.

Test system: CD2F1 mice, L1210 leukemia ip, survival T/C
Assay: NCI In Vivo Anticancer Drug Screen. Data for tumor model L1210 Leukemia (intraperitoneal) in CD2F1 (CDF1) mice
Details: higher = longer survival
Procedure, shortened: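 Antitumor effect is scored in animals hosting a serially transplanted tumor. Values compare compound-dosed animals against vehicle-only controls as a simple quotient.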

[1] = endpoint: mean survival time, dose: 100.0 mg/kg/injection, schedule: Q04DX003 (ip), vehicle: saline with Tween-80
[2] = endpoint: mean survival time, dose: 100.0 mg/kg/injection, schedule: Q01DX009 (ip), vehicle: saline with Tween-80
[3] = endpoint: mean survival time, dose: 200.0 mg/kg/injection, schedule: Q01DX009 (ip), vehicle: saline with Tween-80
[4] = endpoint: mean survival time, dose: 200.0 mg/kg/injection, schedule: Q04DX003 (ip), vehicle: saline with Tween-80
[5] = endpoint: mean survival time, dose: 400.0 mg/kg/injection, schedule: Q01DX009 (ip), vehicle: saline with Tween-80
[6] = endpoint: mean survival time, dose: 400.0 mg/kg/injection, schedule: Q04DX003 (ip), vehicle: saline with Tween-80
[7] = endpoint: mean survival time, dose: 100.0 mg/kg/injection, schedule: Q04DX002 (ip), vehicle: saline with Tween-80
[8] = endpoint: mean survival time, dose: 200.0 mg/kg/injection, schedule: Q04DX002 (ip), vehicle: saline with Tween-80
[9] = endpoint: mean survival time, dose: 400.0 mg/kg/injection, schedule: Q04DX002 (ip), vehicle: saline with Tween-80
[10] = endpoint: mean survival time, dose: 100.0 mg/kg/injection, schedule: Q01DX001 (ip), vehicle: saline with Tween-80
[11] = endpoint: mean survival time, dose: 200.0 mg/kg/injection, schedule: Q01DX001 (ip), vehicle: saline with Tween-80
[12] = endpoint: mean survival time, dose: 400.0 mg/kg/injection, schedule: Q01DX001 (ip), vehicle: saline with Tween-80
[13] = endpoint: mean survival time, dose: 100.0 mg/kg/injection, schedule: Q04DX003 (ip), vehicle: other
[14] = endpoint: mean survival time, dose: 200.0 mg/kg/injection, schedule: Q04DX003 (ip), vehicle: other
[15] = endpoint: mean survival time, dose: 400.0 mg/kg/injection, schedule: Q04DX003 (ip), vehicle: other

Measured: T/C

CCCCCCCCCCC(C)c1ccc(S(=O)(=O)O)cc1 (stereo not drawn)
inactive: endpoint: mean survival time, dose: 50.0 mg/kg/injection, schedule: Q01DX009 (ip), vehicle: saline sonified 97 % of control | endpoint: mean survival time, dose: 100.0 mg/kg/injection, schedule: Q01DX009 (ip), vehicle: saline sonified 97 % of control | endpoint: mean survival time, dose: 200.0 mg/kg/injection, schedule: Q01DX009 (ip), vehicle: saline sonified 102 % of control

CCC(N)Cc1ccc2c(c1)OCO2 (stereo not drawn)
inactive: endpoint: mean survival time, dose: 25.0 mg/kg/injection, schedule: Q01DX009 (ip), vehicle: saline 98 % of control | endpoint: mean survival time, dose: 50.0 mg/kg/injection, schedule: Q01DX009 (ip), vehicle: saline 93 % of control | endpoint: mean survival time, dose: 100.0 mg/kg/injection, schedule: Q01DX009 (ip), vehicle: saline 96 % of control | [1] 95 % of control

NN1C(=O)c2c(Cl)c(Cl)c(Cl)c(Cl)c2C1=O
inactive: [2] 97 % of control | [1] 95 % of control | [3] 98 % of control | [4] 97 % of control | [5] 93 % of control | [6] 92 % of control

CCOC(=O)CC/C=C/Cc1c(OC)c(C)c2c(c1OC(=O)NCc1ccc(N(CC)CC)cc1)C(=O)OC2
inactive: [7] 112 % of control

CCc1nc2c(=O)n(C3OC(CO)C(O)C3O)cnc2o1 (stereo not drawn)
inactive: endpoint: mean survival time, dose: 100.0 mg/kg/injection, schedule: Q01DX005 (ip), vehicle: saline 100 % of control | endpoint: mean survival time, dose: 200.0 mg/kg/injection, schedule: Q01DX005 (ip), vehicle: saline 101 % of control

C1CCC2(CCC34CCCCC3CCCC4)CCCCC2C1 (stereo not drawn)
inactive: [1] 101 % of control | [4] 102 % of control | [6] 102 % of control

Nc1ccn(C2CC3[O][Sn]([c]4ccccc4)([c]4ccccc4)[O]CC3O2)c(=O)n1 (stereo not drawn)
inactive: endpoint: mean survival time, dose: 6.25 mg/kg/injection, schedule: Q01DX005 (ip), vehicle: distilled water + Tween-80 103 % of control | endpoint: mean survival time, dose: 12.5 mg/kg/injection, schedule: Q01DX005 (ip), vehicle: distilled water + Tween-80 93 % of control | endpoint: mean survival time, dose: 25.0 mg/kg/injection, schedule: Q01DX005 (ip), vehicle: distilled water + Tween-80 93 % of control | endpoint: mean survival time, dose: 50.0 mg/kg/injection, schedule: Q01DX005 (ip), vehicle: distilled water + Tween-80 88 % of control

CC(C)CCCC(C)CO[P+](=O)OCC(C)CCCC(C)C (stereo not drawn)
inactive: [7] 103 % of control | [8] 96 % of control | [9] 88 % of control

Nc1nc(-c2cccc3ccccc23)cc2ccccc12
inactive: endpoint: mean survival time, dose: 12.5 mg/kg/injection, schedule: Q01DX009 (ip), vehicle: saline with Tween-80 89 % of control and 98 % of control | endpoint: mean survival time, dose: 25.0 mg/kg/injection, schedule: Q01DX009 (ip), vehicle: saline with Tween-80 101 % of control and 102 % of control | endpoint: mean survival time, dose: 50.0 mg/kg/injection, schedule: Q01DX009 (ip), vehicle: saline with Tween-80 104 % of control and 105 % of control | [2] 112 % of control and 97 % of control | [3] 118 % of control and 106 % of control

COc1ccc(OC)c(C)c1
inactive: [2] 105 % of control | [3] 107 % of control | [5] 104 % of control

CCCCCCCCCCCCCCCCCCCOc1ccc(OCCCCCCCCCCCCCC)cc1
inactive: [10] 86 % of control | [11] 88 % of control | [12] 88 % of control

c1ccc(-c2cc(-c3ccccc3)on2)cc1
inactive: [2] 96 % of control | [1] 93 % of control | [3] 94 % of control | [4] 94 % of control | [5] 97 % of control | [6] 98 % of control

CCN(CC)CCSCCSCCN(CC)CC
inactive: endpoint: mean survival time, dose: 100.0 mg/kg/injection, schedule: Q01DX001 (ip), vehicle: saline 100 % of control | endpoint: mean survival time, dose: 200.0 mg/kg/injection, schedule: Q01DX001 (ip), vehicle: saline 100 % of control

c1ccc(-c2cc3cc4ccccc4cn3c2)cc1
inactive: endpoint: median survival time, dose: 50.0 mg/kg/injection, schedule: Q01DX009 (ip), vehicle: saline with Tween-80 104 % of control | endpoint: median survival time, dose: 100.0 mg/kg/injection, schedule: Q01DX009 (ip), vehicle: saline with Tween-80 100 % of control | endpoint: median survival time, dose: 200.0 mg/kg/injection, schedule: Q01DX009 (ip), vehicle: saline with Tween-80 108 % of control | endpoint: median survival time, dose: 400.0 mg/kg/injection, schedule: Q01DX009 (ip), vehicle: saline with Tween-80 113 % of control | endpoint: median survival time, dose: 800.0 mg/kg/injection, schedule: Q01DX009 (ip), vehicle: saline with Tween-80 110 % of control

O/N=C/c1cc[n+](CCC[n+]2ccc(/C=N/O)cc2)cc1
inactive: endpoint: mean survival time, dose: 5.0 mg/kg/injection, schedule: Q01DX009 (ip), vehicle: saline sonified 98 % of control | endpoint: mean survival time, dose: 5.0 mg/kg/injection, schedule: Q04DX003 (ip), vehicle: saline 103 % of control | endpoint: mean survival time, dose: 10.0 mg/kg/injection, schedule: Q01DX009 (ip), vehicle: saline sonified 98 % of control | endpoint: mean survival time, dose: 10.0 mg/kg/injection, schedule: Q04DX003 (ip), vehicle: saline 105 % of control | endpoint: mean survival time, dose: 20.0 mg/kg/injection, schedule: Q01DX009 (ip), vehicle: saline sonified 95 % of control | endpoint: mean survival time, dose: 20.0 mg/kg/injection, schedule: Q04DX003 (ip), vehicle: saline 101 % of control

CCCCCCCCCCCC(=O)c1ccccc1
inactive: [2] 102 % of control | [13] 95 % of control | [3] 102 % of control | [14] 97 % of control | [5] 98 % of control | [15] 92 % of control

BrCCOc1ccccc1
inactive: [13] 108 % of control | [14] 97 % of control | [15] 86 % of control

COc1ccc(CC(N)C(=O)O)cc1N(CCCl)CCCl (stereo not drawn)
inactive: endpoint: mean survival time, dose: 3.2 mg/kg/injection, schedule: Q01DX001 (ip), vehicle: carboxymethylcellulose (CMC) 122 % of control

C=C(NC(=O)CN)C(=O)O
inactive: [7] 100 % of control | [8] 95 % of control | [9] 95 % of control

NC(=O)C(Cl)(Cl)C(Cl)(Cl)C(Cl)(Cl)Cl
inactive: [2] 100 % of control | [1] 100 % of control | [3] 93 % of control | [4] 95 % of control | [5] 90 % of control | [6] 94 % of control

CC1(C)Nc2cc3c(cc2-n2cccc21)oc1ccccc13
inactive: endpoint: median survival time, dose: 50.0 mg/kg/injection, schedule: Q01DX005 (ip), vehicle: DMSO 98 % of control | endpoint: median survival time, dose: 100.0 mg/kg/injection, schedule: Q01DX005 (ip), vehicle: DMSO 103 % of control | endpoint: median survival time, dose: 200.0 mg/kg/injection, schedule: Q01DX005 (ip), vehicle: DMSO 100 % of control | endpoint: median survival time, dose: 400.0 mg/kg/injection, schedule: Q01DX005 (ip), vehicle: DMSO 101 % of control | endpoint: median survival time, dose: 800.0 mg/kg/injection, schedule: Q01DX005 (ip), vehicle: DMSO 103 % of control

CCOc1cccc(Cc2c[nH]c(=O)[nH]c2=O)c1
inactive: [10] 90 % of control | [11] 100 % of control | [12] 89 % of control

CCCCCC(O)C(C)C (stereo not drawn)
inactive: endpoint: mean survival time, dose: 75.0 mg/kg/injection, schedule: Q01DX001 (ip), vehicle: saline 98 % of control | endpoint: mean survival time, dose: 150.0 mg/kg/injection, schedule: Q01DX001 (ip), vehicle: saline 91 % of control

CSc1nc2cc(S(=O)(=O)N3CCCCC3)ccc2s1
inactive: [2] 93 % of control | [1] 89 % of control | [3] 95 % of control | [4] 89 % of control | [5] 93 % of control | [6] 86 % of control

COc1cccc2c1C(=O)c1c(O)c3c(c(O)c1C2=O)C[C@@](O)(C(=O)COC(=O)c1ccccc1)C[C@@H]3OC1CC(N)C(O)C(C)O1 (stereo partly drawn)
inactive: endpoint: mean survival time, dose: 0.5 mg/kg/injection, schedule: Q01DX009 (ip), vehicle: saline sonified 122 % of control | endpoint: mean survival time, dose: 1.3 mg/kg/injection, schedule: Q04DX003 (ip), vehicle: Klucel (hydroxypropylcellulose) (HPC) 124 % of control
